The test system of experiment [1] is HT29 cells. The conditions noted are these: single agent; 40 μM roscovitine; 1 μM 5-FU.
Description: HT29 cells were seeded and treated with drug in the same way as for the determination of cell cycle distribution. After 24 hours, media was replaced with that containing 10 μM BrdU and incubated for 30 minutes. Detached cells were harvested, plates were washed twice in PBS and adherent cells harvested by trypsinisation. Adherent and detached cells were pooled, washed in PBS, fixed in ice cold 70% v/v ethanol and stored at 4° C. Cells were washed twice in PBS+1% BSA and treated with 2M HCl for 20 minutes, followed by a further three washes in PBS. Cells were pelleted and 2 μl of anti-BrdU antibody (Pharmingen) added to the pellet. […] After incubation at room temperature protected from light for 20 minutes, samples were analysed by flow cytometry.
A Becton Dickinson LSR flow cytometer was used for these studies, in accordance with the manufacturers recommendations. […] Where used, activated caspase-3 and BrdU positive cells were designated as such on the basis of green fluorescence (530±28 nm), acquired on a logarithmic scale. Red fluorescence (575±26 nm) was acquired on a linear scale and pulse width analysis was used to exclude cell doublets and aggregates from the analysis. Cells with a DNA content of between 2n and 4n were designated as being in G1, S or G2/M phases of the cell cycle, as defined by the level of red fluorescence. […]
The subject of experiment [2] is HT29 cells. The experiment is described as follows: analysis of cell cycle distribution by flow cytometry. It counts as cell-based, human. The conditions noted are these: single agent, 48 hours; roscovitine 20 μM and 40 μM; 5-FU 0.5 μM and 1 μM; dose dependent. On the technique in general: In flow cytometry, cells or beads pass a laser one at a time.
Experiment [3] has as its system HT29 cells. The experiment is described as follows: activated caspase-3 assay. It counts as cell-based, human. The conditions noted are these: single agent, dose dependent.
Experiment [4] relates to human mammary cancer xenograft MAXF 857. To be noted: 5FU alone at the concentrations used in the combination.
Description: Cells were passed through sieves of 200 μm and 50 μm mesh size and washed twice with sterile PBS-buffer (Life Technologies). The percentage of viable cells was determined in a Neubauer-hemocytometer using trypan blue exclusion.
The clonogenic assay was performed in a 24-well format according to a modified two-layer soft agar assay introduced by Hamburger et al [Hamburger, A. W. & S. E. Salmon. […] The bottom layer consisted of 0.2 ml/well of Iscove's Modified Dulbecco's Medium (supplemented with 20% (v/v) fetal calf serum and 0.01% (v/v) gentamicin) and 0.75% (w/v) agar. 5·10^4 cells were added to 0.2 ml of the same culture medium supplemented with 0.4% (w/v) agar and plated in 24-multiwell dishes onto the bottom layer. Cytostatic drugs were applied by continuous exposure (drug overlay) in 0.2 ml culture medium 24 hours after seeding in the cells. Every dish included six control wells and drug-treated groups in triplicate at 6 concentrations. […] Cultures were incubated at 37° C. and 7.5% CO2 in a humidified atmosphere for 8-20 days and monitored closely for colony growth using an inverted microscope. Within this period, in vitro tumor growth led to the formation of colonies with a diameter of >50 μm. At the time of maximum colony formation, counts were performed with an automatic image analysis system (OMNICON FAS IV, Biosys GmbH). […]
Experiment [5] concerns HT29 cells. The experiment can be described thus: cells. To be noted: Homo sapiens, HT-29. The source says: Cells were washed in media to inactivate trypsin before reseeding or analysis.
The test system of experiment [6] is MCF7 cells. The experiment is described as follows: cells. To be noted: Homo sapiens. As for the experimental part: MCF7 cells were seeded at 3,000/well in 96 well plates. Cell were allowed to settle overnight, and medium replaced with drug-containing medium the next day. Nine different drug treatments were tested, in triplicate, in each plate.

pIC50: −log10 of the molar value.

As for `CC[C@H](CO)Nc1nc(NCc2ccccc2)c2ncn(C(C)C)c2n1` [roscovitine, 6-benzylamino-2-[(R)-1-ethyl-2-hydroxyethylamino]-9-isopropylpurine], the “number of cells incorporating BrdU” value in experiment [1] was determined as 3.8%. The “effect on cell cycle distribution” value in experiment [2] is “accumulation of cells in G2/M”. Moreover, the “activation of caspase-3” value in experiment [3] is given as “induces activation of caspase-3”.
In general, pIC50 refers to −log10 of the IC50, conventionally taken in molar units. A high value points to a small IC50. For the compound `O=c1[nH]cc(F)c(=O)[nH]1` [5-FU, 5-Fluorouracil], in experiment [1], the “number of cells incorporating BrdU” value is on record as 64.3%. Besides, the “effect on cell growth” value in experiment [4] was “no effect on cell growth”. The pIC50 in experiment [5] is 6.00; in experiment [6], 5.10. In addition, the “effect on cell cycle distribution” value in experiment [2] was “accumulation of cells in S phase”. In addition, the “activation of caspase-3” value in experiment [3] was “albeit to a lesser extent”.

Source of the values: patent US20050164976A1, “Combination of a cdk inhibitor and 5-fu for the tratment of cancer” (Cyclacel Limited, priority 2002, published 2005).
